tested on: human hepatoma cells (HepG2); assay: Tumor cell proliferation inhibition test (MTT), HepG2; type: cell-based; settings: 48 hours treatment, read-out: Half Inhibitory Concentration IC50 HepG2
Description: (§1) The compounds of the present invention were subjected to tumor cell proliferation inhibition test, and conventional MTT method was used.
(§2) Cell lines: human hepatoma cells (HepG2), human lung cancer cells (A-549), human gastric cancer cells (SGC-7901). The culture medium was DMEM+15% NBS+double antibody.
(§3) Sample solution preparation: after dissolving with DMSO (Merck), PBS (−) was added to obtain 100 μmol/L solution or homogeneous suspension. The solution was diluted with PBS (−) in DMSO to a final concentration of 0.1, 1, 10, 20, 40, 60, 80, 100 μmol/L.
(§4) Antitumor drug cytarabine (Ara-C) was used as control solution, prepared under the same condition.
(§5) Cell culture: adherent growth Tumor cells were cultured in 1640 medium containing 10% inactivated neonatal bovine serum and penicillin, streptomycin (1 million U/L), placed in carbon dioxide incubator at 37° C., 5% CO2, and saturated humidity. Cells were treated serially passaged 2-3 times. The first culture was washed with PBS 2 times, and digested with trypsin. Fresh culture medium was added evenly, cells were adjusted to a appropriate concentration and transferred into a new culture flask. Cell in an exponential phase were chosen for the tests.
(§6) MTT Assay for Cell Viability and IC50 Determination:
(§7) Experimental Principle: Living cells mitochondria in the dehydrogenase can reduce yellow MTT to water-insoluble blue-violet product MT (MTT formazan), deposited in the cells. The amount of production is proportional to the number of living cells. […] DMSO can dissolve blue violet crystals, and the color depth is proportional to the amount contained, so the absorbance measured by the microplate reader can reflect the cell viability.
(§8) Methods: The exponential phase cells were digested and counted and seeded in 96-well plates at a density of 2×10^4/mL at 100 μl per well. After 24 hours of incubation, the cells to be tested were treated with 0.1, 1, 10, 20, 40, 60, 80, 100 μmol/L of the compounds. Each experimental group had 5 wells in each concentration, and the culture medium containing 0.4% DMSO was used as control. After 48 hours, the supernatant was discarded, and 100 μl of MTT ((2-(4,5-dimethyl-2-thiazolyl)-3,5-diphenyl-2H-[…]) (1 mg/mL) was added to each well. After another 4 hours, the supernatant was discarded, and 100 μl of DMSO was added to each well. After mixing, the absorbance was measured at 570 nm using a microplate reader. An IC50 calculation software was used to determine the half inhibitory concentration (IC50).

| IC50 [µM] | Structure (SMILES) |
| --- | --- |
| 18.3 ± 0.28 | Nc1ccn([C@@H]2O[C@H](CO)[C@@H](O)[C@@H]2O)c(=O)n1 [Ara-C, cytarabine, reference compound] |
| > 100 | Cc1cnc2c(c1)/C(=N/N=C1\C(=O)Nc3ncc(Cl)cc31)C(=O)N2 [Compound 1] |
| > 100 | CN1C(=O)/C(=N\N=C2/C(=O)N(Cc3ccccc3)c3ncccc32)c2cccnc21 [Compound 4] |
| 28.7 ± 0.4 | CCN1C(=O)/C(=N\N=C2/C(=O)N(C)c3ncccc32)c2cccnc21 [Compound 5] |
| > 100 | CCN1C(=O)/C(=N\N=C2/C(=O)N(C(C)C)c3ncccc32)c2cccnc21 [Compound 6] |
| 98.6 ± 3.23 | CC(C)N1C(=O)/C(=N\N=C2/C(=O)N(C)c3ncccc32)c2cccnc21 [Compound 7] |

tested on: human lung cancer cells (A-549); assay: Tumor cell proliferation inhibition test (MTT), A-549; type: cell-based; settings: A549 cells, 48 hours treatment, read-out: Half Inhibitory Concentration IC50 A549
Description: as §1, §2, §3, §4, §5, §6, §7, §8

| IC50 [µM] | Structure (SMILES) |
| --- | --- |
| 14.9 ± 0.64 | Nc1ccn([C@@H]2O[C@H](CO)[C@@H](O)[C@@H]2O)c(=O)n1 [Ara-C, cytarabine, reference compound] |
| 55.8 ± 2.67 | Cc1cnc2c(c1)/C(=N/N=C1\C(=O)Nc3ncc(Cl)cc31)C(=O)N2 [Compound 1] |
| 85.8 ± 2.96 | CN1C(=O)/C(=N\N=C2/C(=O)N(Cc3ccccc3)c3ncccc32)c2cccnc21 [Compound 4] |
| > 100 | CCN1C(=O)/C(=N\N=C2/C(=O)N(C(C)C)c3ncccc32)c2cccnc21 [Compound 6] |
| > 100 | CC(C)N1C(=O)/C(=N\N=C2/C(=O)N(C)c3ncccc32)c2cccnc21 [Compound 7] |

tested on: human gastric cancer cells (SGC-7901); assay: Tumor cell proliferation inhibition test (MTT), SGC-7901; type: cell-based; settings: SGC-7901 cells, 48 hours treatment, read-out: Half Inhibitory Concentration IC50 SGC-7901
Description: as §1, §2, §3, §4, §5, §6, §7, §8

| IC50 [µM] | Structure (SMILES) |
| --- | --- |
| 18.2 ± 0.39 | Nc1ccn([C@@H]2O[C@H](CO)[C@@H](O)[C@@H]2O)c(=O)n1 [Ara-C, cytarabine, reference compound] |
| 42.3 ± 1.89 | Cc1cnc2c(c1)/C(=N/N=C1\C(=O)Nc3ncc(Cl)cc31)C(=O)N2 [Compound 1] |
| > 100 | CN1C(=O)/C(=N\N=C2/C(=O)N(Cc3ccccc3)c3ncccc32)c2cccnc21 [Compound 4] |
| 46.9 ± 0.85 | CCN1C(=O)/C(=N\N=C2/C(=O)N(C)c3ncccc32)c2cccnc21 [Compound 5] |
| > 100 | CCN1C(=O)/C(=N\N=C2/C(=O)N(C(C)C)c3ncccc32)c2cccnc21 [Compound 6] |
| > 100 | CC(C)N1C(=O)/C(=N\N=C2/C(=O)N(C)c3ncccc32)c2cccnc21 [Compound 7] |

tested on: not given; assay: not given; settings: not given

| melting point [°C] | Structure (SMILES) |
| --- | --- |
| 174.5 | Cc1cnc2c(c1)/C(=N/N=C1\C(=O)Nc3ncc(Cl)cc31)C(=O)N2 [Compound 1] |
| 214.3 | CN1C(=O)/C(=N\N=C2/C(=O)N(Cc3ccccc3)c3ncccc32)c2cccnc21 [Compound 4] |
| 195.6 | CCN1C(=O)/C(=N\N=C2/C(=O)N(C)c3ncccc32)c2cccnc21 [Compound 5] |
| 191.9 | CCN1C(=O)/C(=N\N=C2/C(=O)N(C(C)C)c3ncccc32)c2cccnc21 [Compound 6] |
| 182.5 | CC(C)N1C(=O)/C(=N\N=C2/C(=O)N(C)c3ncccc32)c2cccnc21 [Compound 7] |
